Laboratory results: PubChem BioAssay (NCI)
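The concentration for 50% growth inhibition is given as GI50. TGI: total growth inhibition.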

Experiments:
Assay in all cases: NCI tumour cell line growth inhibition, 384-well format
[1] = test system: UACC-62 melanoma
[2] = test system: OVCAR-5 ovarian
[3] = test system: MALME-3M melanoma
[4] = test system: MDA-MB-435 melanoma
[5] = test system: MDA-MB-231 breast
[6] = test system: PC-3 prostate
[7] = test system: ACHN renal
[8] = test system: HS 578T breast
[9] = test system: T-47D breast
[10] = test system: MDA-MB-468 breast
[11] = test system: M14 melanoma
[12] = test system: SF-295 CNS
[13] = test system: SR leukemia
[14] = test system: NCI-H522 lung
[15] = test system: SK-MEL-2 melanoma
[16] = test system: NCI-H226 lung
[17] = test system: OVCAR-4 ovarian
[18] = test system: UACC-257 melanoma
[19] = test system: NCI-H23 lung
[20] = test system: SK-OV-3 ovarian
[21] = test system: EKVX NSCLC
[22] = test system: NCI-H460 NSCLC
[23] = test system: A498 renal
[24] = test system: SW-620 colon
[25] = test system: IGROV1 ovarian
[26] = test system: HOP-62 NSCLC
[27] = test system: HL-60(TB) leukemia
[28] = test system: COLO 205 colon
[29] = test system: HCC-2998 colon
[30] = test system: MOLT-4 leukemia
[31] = test system: DU-145 prostate
[32] = test system: 786-0 renal
[33] = test system: RXF 393 renal
[34] = test system: RPMI-8226 leukemia
[35] = test system: SF-539 CNS
[36] = test system: NCI/ADR-RES ovarian
[37] = test system: MCF7 breast
[38] = test system: K-562 leukemia
[39] = test system: BT-549 breast
[40] = test system: HT29 colon
[41] = test system: UO-31 renal
[42] = test system: SK-MEL-5 melanoma
[43] = test system: HCT-15 colon
[44] = test system: KM12 colon
[45] = test system: SNB-19 CNS
[46] = test system: CAKI-1 renal
[47] = test system: NCI-H322M lung

Compound: CS(=O)(=O)c1ccc(C(=O)Nc2ccc(Cl)c(-c3ccccn3)c2)c(Cl)c1
- GI50 [1]: 44.4 µM
- TGI [1]: > 79.3 µM
- GI50 [2]: 54.2 µM
- TGI [2]: > 100 µM
- GI50 [3]: 19 µM
- TGI [3]: 61.2 µM
- GI50 [4]: > 62 µM
- TGI [4]: > 100 µM
- GI50 [5]: > 65.9 µM
- TGI [5]: > 100 µM
- GI50 [6]: 55 µM
- TGI [6]: > 100 µM
- GI50 [7]: 35.6 µM
- TGI [7]: > 81.7 µM
- GI50 [8]: 27.6 µM
- TGI [8]: > 84 µM
- GI50 [9]: 21.4 µM
- TGI [9]: 59.7 µM
- GI50 [10]: 22.2 µM
- TGI [10]: 46.7 µM
- GI50 [11]: 47.5 µM
- TGI [11]: > 100 µM
- GI50 [12]: 33 µM
- TGI [12]: > 67.7 µM
- GI50 [13]: 29 µM
- TGI [13]: 50.6 µM
- GI50 [14]: 46 µM
- TGI [14]: > 100 µM
- GI50 [15]: 33.8 µM
- TGI [15]: > 100 µM
- GI50 [16]: 22.9 µM
- TGI [16]: 64.3 µM
- GI50 [17]: 32.6 µM
- TGI [17]: > 84.5 µM
- GI50 [18]: 49.6 µM
- TGI [18]: > 89.7 µM
- GI50 [19]: > 61.2 µM
- TGI [19]: > 100 µM
- GI50 [20]: > 72.5 µM
- TGI [20]: > 100 µM
- GI50 [21]: 48.3 µM
- TGI [21]: > 90.5 µM
- GI50 [22]: 30.8 µM
- TGI [22]: > 70.3 µM
- GI50 [23]: 31.9 µM
- TGI [23]: > 71.7 µM
- GI50 [24]: > 64 µM
- TGI [24]: > 100 µM
- GI50 [25]: 56.6 µM
- TGI [25]: > 100 µM
- GI50 [26]: 61.9 µM
- TGI [26]: > 100 µM
- GI50 [27]: 19.6 µM
- TGI [27]: 49.1 µM
- GI50 [28]: 40.3 µM
- TGI [28]: > 100 µM
- GI50 [29]: 24.6 µM
- TGI [29]: 56.8 µM
- GI50 [30]: 21.8 µM
- TGI [30]: 46.3 µM
- GI50 [31]: 42.5 µM
- TGI [31]: > 86.8 µM
- GI50 [32]: 22.8 µM
- TGI [32]: 58.3 µM
- GI50 [33]: 22.7 µM
- TGI [33]: 51.9 µM
- GI50 [34]: 25 µM
- TGI [34]: 61.5 µM
- GI50 [35]: 49.1 µM
- TGI [35]: > 100 µM
- GI50 [36]: 25.3 µM
- TGI [36]: 71.7 µM
- GI50 [37]: 35.3 µM
- TGI [37]: > 82.8 µM
- GI50 [38]: 16.3 µM
- TGI [38]: 31.1 µM
- GI50 [39]: 25.1 µM
- TGI [39]: 76.9 µM
- GI50 [40]: 18.3 µM
- TGI [40]: 36.7 µM
- GI50 [41]: 35.4 µM
- TGI [41]: > 80.3 µM
- GI50 [42]: 10.8 µM
- TGI [42]: > 29.3 µM
- GI50 [43]: 26.2 µM
- TGI [43]: > 70.8 µM
- GI50 [44]: 17.9 µM
- TGI [44]: > 56.7 µM
- GI50 [45]: > 64.8 µM
- TGI [45]: > 100 µM
- GI50 [46]: 36.6 µM
- TGI [46]: > 83.8 µM
- GI50 [47]: 67.2 µM
- TGI [47]: > 100 µM
